Laboratory results reported in publication PMC11420065 (Molecular Psychiatry, 2024).

Legend:
[1] = target: T1, human 5-HT2AR (Homo sapiens, UniProt P28223); assay: EMTA ebBRET biosensor, agonist mode, β-arrestin recruitment; settings: baseline vs maximal response, words
Protocol: (§1) For recruitment of the β-arrestins, cells were transfected with the receptor, β-arrestin1-RlucII or β-arrestin2-RlucII, GRK2 and rGFP-CAAX.
(§2) For in vitro experiments, curves fitting was conducted using GraphPad Prism 9 (version 9.0.0). Concentration response curves were obtained using a three-parameter logistic nonlinear regression model and the results are expressed as mean ± SEM of at least three independent experiments. […] Ligand-promoted BRET (ΔBRET) was determined by subtracting the BRET ratio of the vehicle condition from the BRET ratio of the ligand-treated conditions.

[2] = target: T1, human 5-HT2AR; assay: EMTA ebBRET biosensor, agonist mode, Gαi/o/z family (Rap1GAP-RlucII/rGFP-CAAX); settings: for Emax (%) ± SEM: normalized as % response of 5-HT, NA: no activity
Protocol: as §1, §2

[3] = test system: D-myo-inositol 1 monophosphate (IP1); assay: IP1 levels in frontal cortex of treated mice (IP-One HTRF); settings: 1 h
Protocol: C57BL/6 wild-type males, sourced from JAX farms, 11 weeks of age at the time of experiment, were housed in groups of up to five littermates with food and water ad libitum in a vivarium with a 12 h light/dark cycle at 23 °C. Animals were allowed to get accustomed to the vivarium at least 1 week prior to the experiment. […] All efforts were made to minimize animal suffering and the number of animals used.
Briefly, frontal cortices were harvested and homogenized in a 10 µL per 1 mg of tissue solution consisting of 10% IP-One Gq Kit Lysis and Detection Buffer in Stimulation Buffer. The clarified homogenates (17,000 × g for 15 min) were plated in duplicate by sequential addition of 2 µL to a 18 µL mix of detection reagents in Lysis and Detection Buffer.
The mice used in the studies came from the same colony and were split randomly between the experimental groups. The investigators were blinded to group allocation during compounds administration to mice. Data are presented as mean ± SEM of 5 mice for each treated group.
Data are normalized in fold of IP1 production in vehicle-treated mice (n = 5 animals per treatment condition; one-way ANOVA followed by Dunnett’s post hoc: compared to vehicle at 1h: *p < 0.1 and **p < 0.01 compared to vehicle).

[4] = target: T1, human 5-HT2AR; assay: EMTA ebBRET biosensor, agonist mode, Gαq family (p63-RlucII/rGFP-CAAX); settings: normalized as % response of 5-HT, NA: no activity
Protocol: as §1, §2

[5] = target: T1, human 5-HT2AR
Protocol: as §1, §2

T1 sequence (P28223 whole entry): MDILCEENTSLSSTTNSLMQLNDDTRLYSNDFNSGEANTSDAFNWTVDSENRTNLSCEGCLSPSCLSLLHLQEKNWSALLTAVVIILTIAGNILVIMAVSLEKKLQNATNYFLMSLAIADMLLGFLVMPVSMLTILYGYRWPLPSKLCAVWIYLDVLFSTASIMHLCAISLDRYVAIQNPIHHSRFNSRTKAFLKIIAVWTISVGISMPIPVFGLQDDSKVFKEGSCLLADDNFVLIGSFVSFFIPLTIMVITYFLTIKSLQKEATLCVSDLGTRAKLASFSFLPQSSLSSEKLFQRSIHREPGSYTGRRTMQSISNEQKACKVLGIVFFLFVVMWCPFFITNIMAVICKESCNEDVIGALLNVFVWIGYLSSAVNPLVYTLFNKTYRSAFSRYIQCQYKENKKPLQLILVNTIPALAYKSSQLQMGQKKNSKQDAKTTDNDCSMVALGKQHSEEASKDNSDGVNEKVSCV

O=C1CCc2ccc(OCCCCN3CCN(c4cccc(Cl)c4Cl)CC3)cc2N1 [Aripiprazole, aripiprazole]
recruitment of β-arrestin1 [1]: very weak yet statistically significant recruitment
activation at Gαi1 and Gαz [2]: very weak yet statistically significant activation
increase in IP1 levels compared to the vehicle condition ([3]; 2 mg/Kg i.p.): 10.5 ± 1.6%

CN(C)C(=O)N[C@H]1CC[C@H](CCN2CCN(c3cccc(Cl)c3Cl)CC2)CC1 [Cariprazine, cariprazine]
recruitment of β-arrestin1 [1]: did not
Emax (%) ± SEM ([4]; Gα11): 70.72 ± 4.97%
Emax (%) ± SEM ([4]; Gα14): 68.10 ± 3.05%
Emax (%) ± SEM ([4]; Gα15): 13.93 ± 0.53%
Emax (%) ± SEM ([4]; Gαq): 67.99 ± 4.29%
Emax (%) ± SEM ([2]; Gαi1): 12.72 ± 3.42%
Emax (%) ± SEM ([2]; Gαi2): 11.72 ± 2.50%
Emax (%) ± SEM ([2]; Gαi3): 16.05 ± 2.57%
Emax (%) ± SEM ([2]; GαoA): 11.59 ± 2.44%
Emax (%) ± SEM ([2]; GαoB): 4.32 ± 2.16%
Emax (%) ± SEM ([2]; Gαz): 9.02 ± 0.88%
activation at the Gαi/o/z family ([2]; agonist mode, baseline vs maximal response, words): did not show statistically significant activation
% inhibition ± SEM [5]: > 50%

Cc1nc2n(c(=O)c1CCN1CCC(c3noc4cc(F)ccc34)CC1)CCCC2 [Risperidone, risperidone]
reduction in IP1 ([3]; 3 mg/Kg i.p., vs vehicle): 9.2 ± 1.2%
